Measurements as given in paper PMC8286840, “Identifying SARS-CoV-2 antiviral compounds by screening for small molecule inhibitors of Nsp3 papain-like protease” (Biochemical Journal, 2021).
Structures can show the parent of a compound that is named as a salt. Where two headings read alike, the source gives them in different places. *1 amine or outer side, *2 acyl side, *3 side chain or, on linkers, in order; H or OH if unused. Where a SMILES comes first, the peptide text is derived from it. Bridges are numbered along the chain shown (N, C = ends). X1 = O=C(CCC[*:2])[*:1]

Columns and labels:
[1] = molecular target: T1, SARS-CoV-2 PLpro (nsp3 1564–1878) (Severe acute respiratory syndrome coronavirus 2, UniProt P0DTD1); assay: biochemical; parameters: FRET-quenched peptide (Pro3) cleavage by PLpro, 10 min pre-incubation, slope over 20 min, normalised to no-compound control; settings: low concentration screen, read-out: % of control remaining
[2] = molecular target: T1, SARS-CoV-2 PLpro (nsp3 1564–1878); assay: biochemical; parameters: FRET-quenched peptide (Pro3) cleavage by PLpro, 10 min pre-incubation, slope over 20 min, normalised to no-compound control; settings: high concentration screen, read-out: % of control remaining

Q: Which results are given for `Nc1ncnc2c1ncn2C1CCCC1` [9-cyclopentyladenine]?
A: remaining activity at 1.25 µM ([1]; Well no.=176): 93.3%; remaining activity at 3.75 µM ([2]; Well no.=176): 91.5%

Q: `CCCCOCCOc1ccc(-c2ccc3c(c2)/C=C(/C(=O)Nc2ccc([S@@+]([O-])Cc4cncn4CCC)cc2)CCCN3CC(C)C)cc1` [Cenicriviroc] was tested. Which remaining activity at 1.25 µM ([1]; Well no.=8515) did it give?
A: 104%

Q: And the remaining activity at 3.75 µM ([2]; Well no.=8515)?
A: 105%

Q: What does the source list for `CNCCC=C1c2ccccc2CCc2ccccc21` [Nortriptyline hydrochloride]?
A: remaining activity at 1.25 µM ([1]; Well no.=1097): 95.3%; remaining activity at 3.75 µM ([2]; Well no.=1097): 96.6%

Q: How did the remaining activity at 1.25 µM ([1]; Well no.=6645) turn out when `CC(=O)N[C@@H](CC(=O)O)C(=O)O` [N-Acetyl-L-aspartic acid] was run?
A: 98.3%

Q: And the remaining activity at 1.25 µM ([1]; Well no.=7690)?
A: 101%

Q: What about the remaining activity at 3.75 µM ([2]; Well no.=6645) of the same molecule?
A: 98.5%

Q: And the remaining activity at 3.75 µM ([2]; Well no.=7690)?
A: 96.5%

Q: With `CCCC/C=C\CCCCCCCC(=O)O` [9(Z)-Tetradecenoic acid] as the molecule, how does the remaining activity at 1.25 µM ([1]; Well no.=4268) read?
A: 102%

Q: What about the remaining activity at 3.75 µM ([2]; Well no.=4268) of the same molecule?
A: 98%

Q: For `CC(=O)O[C@]1(C(C)=O)CC[C@H]2[C@@H]3C=C(Cl)C4=CC(=O)[C@@H]5C[C@@H]5[C@]4(C)[C@H]3CC[C@@]21C` [Cyproterone acetate], which remaining activity at 1.25 µM ([1]; Well no.=316) is on record?
A: 95.3%

Q: And the remaining activity at 1.25 µM ([1]; Well no.=1934)?
A: 99.5%

Q: What about the remaining activity at 3.75 µM ([2]; Well no.=316) of the same molecule?
A: 95.7%

Q: And the remaining activity at 3.75 µM ([2]; Well no.=1934)?
A: 99.8%

Q: Which results are given for `CC(=O)O[C@@H]1[C@@H](OC(C)=O)[C@@H](O)[C@H](Oc2c(-c3ccc(O)cc3)oc3cc(O)cc(O)c3c2=O)O[C@H]1C` [RSK Inhibitor, SL0101]?
A: remaining activity at 1.25 µM ([1]; Well no.=2635): 95.6%; remaining activity at 3.75 µM ([2]; Well no.=2635): 97.4%

Q: Which remaining activity at 1.25 µM ([1]; Well no.=1539) does the source give for `N=C(N=C(N)N)N1CCOCC1` [Moroxydine.HCl] here?
A: 104%

Q: And the remaining activity at 3.75 µM ([2]; Well no.=1539)?
A: 105%

Q: Which remaining activity at 1.25 µM ([1]; Well no.=8550) does the source give for `O=S(=O)(O)c1cc(S(=O)(=O)O)c2c(N=Nc3ccc(S(=O)(=O)O)c4ccccc34)c(O)ccc2c1` [Ponceau 4R] here?
A: 104%

Q: What about the remaining activity at 3.75 µM ([2]; Well no.=8550) of the same molecule?
A: 102%

Q: Which results are given for `O=C(Oc1ccc([N+](=O)[O-])cc1)N1CCN(Cc2cccc(Oc3ccccc3)c2)CC1` [JZL195]?
A: remaining activity at 1.25 µM ([1]; Well no.=5512): 107%; remaining activity at 3.75 µM ([2]; Well no.=5512): 108%

Q: `CC(=O)C(C)=O` [2,3-Butanedione] was tested. Which remaining activity at 1.25 µM ([1]; Well no.=687) did it give?
A: 98.3%

Q: And the remaining activity at 3.75 µM ([2]; Well no.=687)?
A: 97.2%

Q: What does the source list for `COc1nc(C)nc(Cl)c1NC1=NCCN1` [Moxonidine hydrochloride]?
A: remaining activity at 1.25 µM ([1]; Well no.=920): 100%; remaining activity at 3.75 µM ([2]; Well no.=920): 102%

Q: Which remaining activity at 1.25 µM ([1]; Well no.=8653) does the source give for `OC[C@H]1O[C@@H](n2cnc3c(NCCc4c[nH]c5ccccc45)ncnc32)[C@H](O)[C@@H]1O` [A2AR-agonist-1] here?
A: 105%

Q: What about the remaining activity at 3.75 µM ([2]; Well no.=8653) of the same molecule?
A: 105%

Q: Which results are given for `CCN1C[C@]2(COC)CC[C@H](O)[C@]34C1C(C[C@H]23)[C@@]1(O)C[C@H](OC)[C@H]2C[C@@H]4[C@@H]1[C@H]2OC(C)=O` [Condelphine]?
A: remaining activity at 1.25 µM ([1]; Well no.=3107): 93.3%; remaining activity at 3.75 µM ([2]; Well no.=3107): 92.8%

Q: Which remaining activity at 1.25 µM ([1]; Well no.=1743) does the source give for `CC(C)(C)NCC(O)c1cc(Cl)c(N)c(Cl)c1` (stereo not drawn) [Clenbuterol] here?
A: 102%

Q: And the remaining activity at 3.75 µM ([2]; Well no.=1743)?
A: 102%

Q: `COc1ccc(CN(CCN(C)C)c2ccccn2)cc1` [Mepyramine maleate] was tested. Which remaining activity at 1.25 µM ([1]; Well no.=1843) did it give?
A: 98.2%

Q: What about the remaining activity at 3.75 µM ([2]; Well no.=1843) of the same molecule?
A: 98.2%

Q: How did the remaining activity at 1.25 µM ([1]; Well no.=8293) turn out when `CC[C@H](C)[C@@H]1NC(=O)[C@H](Cc2ccc(OC)cc2)NC(=O)CCCSC[C@@H](C(=O)N2CCC[C@H]2C(=O)N[C@@H](CC(C)C)C(=O)NCC(N)=O)NC(=O)[C@H](CC(N)=O)NC(=O)[C@H](CCC(N)=O)NC1=O` [Carbetocin] (Y(Me)IQNCPLG-NH2; linker N-5 via X1) was run?
A: 102%

Q: And the remaining activity at 3.75 µM ([2]; Well no.=8293)?
A: 101%

Q: Which results are given for `Cn1c(=O)c2c(ncn2C)n(C)c1=O` [Caffeine]?
A: remaining activity at 1.25 µM ([1]; Well no.=329): 95.2%; remaining activity at 1.25 µM ([1]; Well no.=1737): 105%; remaining activity at 1.25 µM ([1]; Well no.=3344): 89.5%; remaining activity at 3.75 µM ([2]; Well no.=329): 95.9%; remaining activity at 3.75 µM ([2]; Well no.=1737): 103%; remaining activity at 3.75 µM ([2]; Well no.=3344): 91.8%

Q: Which remaining activity at 1.25 µM ([1]; Well no.=2224) does the source give for `CC1Cc2ccccc2N1NC(=O)c1ccc(Cl)c(S(N)(=O)=O)c1` (stereo not drawn) [Indapamide] here?
A: 98.6%

Q: And the remaining activity at 3.75 µM ([2]; Well no.=2224)?
A: 103%

Q: For `CC(C)n1cnc2c(NCc3ccccc3)nc(NCCO)nc21` [N9-Isopropylolomoucine], which remaining activity at 1.25 µM ([1]; Well no.=716) is on record?
A: 96.5%

Q: And the remaining activity at 3.75 µM ([2]; Well no.=716)?
A: 98.5%

Q: What does the source list for `O=c1c(O)c(-c2cc(O)c(O)c(O)c2)oc2cc(O)cc(O)c12` [Myricetin]?
A: remaining activity at 1.25 µM ([1]; Well no.=838): 101%; remaining activity at 1.25 µM ([1]; Well no.=3324): 103%; remaining activity at 1.25 µM ([1]; Well no.=6244): 96.2%; remaining activity at 3.75 µM ([2]; Well no.=838): 102%; remaining activity at 3.75 µM ([2]; Well no.=3324): 108%; remaining activity at 3.75 µM ([2]; Well no.=6244): 96.9%

Q: For `Cc1[nH]c2ccc(Cl)cc2c1C1=CCNCC1` [EMD386088], which remaining activity at 1.25 µM ([1]; Well no.=5430) is on record?
A: 95.7%

Q: What about the remaining activity at 3.75 µM ([2]; Well no.=5430) of the same molecule?
A: 97.4%

Q: Which remaining activity at 1.25 µM ([1]; Well no.=1109) does the source give for `Nc1nc2[nH]c(=O)cnc2c(=O)[nH]1` [Isoxanthopterin] here?
A: 96.8%

Q: And the remaining activity at 3.75 µM ([2]; Well no.=1109)?
A: 100%

Q: How did the remaining activity at 1.25 µM ([1]; Well no.=741) turn out when `C[N+]1(C)CCN(c2ccccc2)CC1` [1,1-Dimethyl-4-phenyl-piperazinium iodide] was run?
A: 92%

Q: What about the remaining activity at 3.75 µM ([2]; Well no.=741) of the same molecule?
A: 92.3%

Q: Which results are given for `CCCN1CCC[C@@H](c2cccc(C#N)c2)C1` [S(-)-DS 121 hydrochloride]?
A: remaining activity at 1.25 µM ([1]; Well no.=596): 100%; remaining activity at 3.75 µM ([2]; Well no.=596): 101%

Q: What does the source list for `CC(C)CCn1c(CN2CCN(C(=O)C3CC3)CC2)nc2c1c(=O)n(C)c(=O)n2C` [NCT-501]?
A: remaining activity at 1.25 µM ([1]; Well no.=8532): 105%; remaining activity at 3.75 µM ([2]; Well no.=8532): 98.9%

Q: For `COc1ccc(S(=O)(=O)Nc2nc(-c3cccc([N+](=O)[O-])c3)cs2)cc1OC` [Ro 61-8048], which remaining activity at 1.25 µM ([1]; Well no.=5865) is on record?
A: 109%

Q: And the remaining activity at 3.75 µM ([2]; Well no.=5865)?
A: 106%

Q: Which results are given for `CCOC(=O)C1=C(C)NC(C)=C(C(=O)OC)C1c1cccc([N+](=O)[O-])c1` (stereo not drawn) [Nitrendipine]?
A: remaining activity at 1.25 µM ([1]; Well no.=796): 92.2%; remaining activity at 1.25 µM ([1]; Well no.=1719): 99.4%; remaining activity at 3.75 µM ([2]; Well no.=796): 94.4%; remaining activity at 3.75 µM ([2]; Well no.=1719): 103%

Q: How did the remaining activity at 1.25 µM ([1]; Well no.=8603) turn out when `Cc1cc(Cn2nnc3c(-c4ccco4)nc(N)nc32)ccc1N` [Vipadenant] was run?
A: 95.2%

Q: And the remaining activity at 3.75 µM ([2]; Well no.=8603)?
A: 92.7%

Q: Which remaining activity at 1.25 µM ([1]; Well no.=5828) does the source give for `Cn1ncnc1COc1nn2c(-c3c(F)cccc3F)nnc2cc1C1CCC1` [MK-0343] here?
A: 101%

Q: What about the remaining activity at 3.75 µM ([2]; Well no.=5828) of the same molecule?
A: 102%

Q: For `CC#CC(=O)Nc1cc2c(Nc3ccc(F)c(Cl)c3)ncnc2cn1` [EGFR/ErbB-2/ErbB-4 Inhibitor], which remaining activity at 1.25 µM ([1]; Well no.=2405) is on record?
A: 102%

Q: What about the remaining activity at 3.75 µM ([2]; Well no.=2405) of the same molecule?
A: 105%

Q: `CCCCCCCCCCCCCCCCCCC(=O)O` [Nonadecanoic acid] was tested. Which remaining activity at 1.25 µM ([1]; Well no.=4362) did it give?
A: 100%

Q: And the remaining activity at 3.75 µM ([2]; Well no.=4362)?
A: 95.6%
